Measured values: publication PMC12598616, “Design and optimization of caspase-1-responsive fluorescent probes for pyroptosis imaging and anti-pyroptosis drug screening” (Chemical Science, 2025)

Key:
caspase-8 = experiment: Selectivity of probes: caspase-8; type: biochemical, human; settings: caspase-8 1 μg/mL, 37 °C, 2 h, λex 510 nm, λem 585 nm
From the text: The resin used for SPPS was purchased from GL Biochem (Shanghai, China). Lipopolysaccharide (LPS, L2630), Nigericin and ATP (11140965001) were purchased from Merck (Shanghai, China) and Invitrogen (Shanghai, China), respectively. Cell culture plates were sourced from Wuxi NEST Biotechnology. Recombinant human caspase-1, caspase-3, caspase-4, and caspase-8 were obtained from Abcam and MCE (Shanghai, China). Anti-cleaved caspase-1 antibody, anti-GAPDH antibody, and goat anti-Rabbit/anti-mouse lgG/HRP were purchased from CST (USA) and Beyotime […]
(§1) (Shanghai, China). […]
(§2) Medical College (ethical approval number ZJCLA-IACUC-20011003).
(§3) (also on this page, place not known: Wang,*f, Wang*abg Supplementary Information (SI) for Chemical Science. This journal is © The Royal Society of Chemistry 2025)
(§4) (1 picture or pasted object on this page, not shown here) […]
mixture was stirred for 3 h. […]
(§5) To investigate the sensitivity of the probes for caspase-1, varying concentration of caspase-1 (0, 0.2, 0.4, 0.6, 0.8, 1.0, 1.25, 1.5, 1.75, 2, 2.5, 3 U/mL) were incubated with FPy1 (5 μM), YPy1 (5 μM) and WPy1 (5 μM) respectively in caspase-1 assay buffer (50 mM HEPES, 50 mM NaCl, 0.1 % chaps, 5 % glycerol, 10 mM DTT, 10 mM EDTA) at 37 °C for 2 hours. Fluorescence spectra were recorded using Hitachi F-2700 spectrophotometer with an excitation at 510 nm (Photomultiplier voltage 700 V; Slit widths ex: 10 nm and em =5.0 nm). The fluorescence intensity of FPy1, YPy1 and WPy1 at 585 nm were plotted against the concentration of caspase-1, and a linear regression fitted from the corresponding concentration of caspase-1, and linear regression was applied to determine the slope k. The limit of detection (LoD) was calculated from 3σ/k, in which σ represents the standard deviation of 15 blank measurements. […]
The fluorescence intensity at 585 nm was measured on a Tecan Infinite M1000 Multi-function microplate reader (λex = 510 nm) at 37 °C every 2 minutes. The K M value of probes was determined from the Lineweaver-Burk plot. […]

caspase-1 [1] = target: T1, caspase-1 (Homo sapiens, UniProt P29466); experiment: Reaction time of probes for caspase-1; type: biochemical; settings: probe 5 μM, Cas-1 2 U/mL, assay buffer, 37 °C
T1 sequence (P29466 120-297 limits assumed): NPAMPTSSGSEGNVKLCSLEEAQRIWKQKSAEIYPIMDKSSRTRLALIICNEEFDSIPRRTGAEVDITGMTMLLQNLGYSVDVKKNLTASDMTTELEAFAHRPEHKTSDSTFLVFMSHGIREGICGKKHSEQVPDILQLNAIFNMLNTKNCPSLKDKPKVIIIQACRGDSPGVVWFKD
T1 sequence (P29466 317-404 limits assumed): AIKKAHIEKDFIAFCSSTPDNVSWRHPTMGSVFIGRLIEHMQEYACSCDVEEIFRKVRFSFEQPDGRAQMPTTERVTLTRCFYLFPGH
Procedure: The spectral and chemical properties of all probes were then evaluated. Upon interaction with Cas-1, the specific peptide of the probes is cleaved, leading to the disruption of the FRET process in the system and the recovery of donor fluorescence (Fig. 2a). Prior to fluorescence detection, the UV-vis absorption spectra of the probes were acquired. […] Subsequently, the sensitivity of the probes towards Cas-1 was measured in HEPES buffer (50 mM HEPES, 50 mM NaCl, 0.1% chaps, 5% glycerol, 10 mM DTT, 10 mM EDTA). […] The response differences among the probes were more intuitively observed by analyzing the standard curves of fluorescence intensity at 585 nm against the concentration of Cas-1 (Fig. 2b). […] The reaction kinetics of the probes were also measured by monitoring the fluorescence intensity of FPy1, YPy1 and WPy1 (0.5–4 μM) following incubation with Cas-1 (2 U mL^−1) (Fig. S3a–f). […] The reaction time of the probes was also investigated by monitoring the fluorescence spectra of the probes (5 μM) incubated with Cas-1 (2 U mL^−1) at various time intervals (Fig. S4a–c). […] Finally, the selectivity of the probes was evaluated. […]
as §5

caspase-1 [2] = target: T1, caspase-1; experiment: Sensitivity of probes for caspase-1 (fluorescence at 585 nm); type: biochemical; settings: probe 5 μM
Procedure: The spectral and chemical properties of all probes were then evaluated. Upon interaction with Cas-1, the specific peptide of the probes is cleaved, leading to the disruption of the FRET process in the system and the recovery of donor fluorescence (Fig. 2a). Prior to fluorescence detection, the UV-vis absorption spectra of the probes were acquired. […] Subsequently, the sensitivity of the probes towards Cas-1 was measured in HEPES buffer (50 mM HEPES, 50 mM NaCl, 0.1% chaps, 5% glycerol, 10 mM DTT, 10 mM EDTA). […] The response differences among the probes were more intuitively observed by analyzing the standard curves of fluorescence intensity at 585 nm against the concentration of Cas-1 (Fig. 2b). […] The reaction kinetics of the probes were also measured by monitoring the fluorescence intensity of FPy1, YPy1 and WPy1 (0.5–4 μM) following incubation with Cas-1 (2 U mL^−1) (Fig. S3a–f). […] The reaction time of the probes was also investigated by monitoring the fluorescence spectra of the probes (5 μM) incubated with Cas-1 (2 U mL^−1) at various time intervals (Fig. S4a–c). […] Finally, the selectivity of the probes was evaluated. A series of potential biologically relevant interferents were selected, and the results illustrated that these interferents had no effect on the probes (Fig. S5a–c). Further selectivity validation was performed through incubating with caspase-3 (1 μg mL^−1), caspase-4 (2 U mL^−1), caspase-8 (1 μg mL^−1) from the caspase protease family. […] Therefore, FPy1 appeared to be the prime candidate for Cas-1 imaging applications. […]
Cell culture plates were sourced from Wuxi NEST Biotechnology. Recombinant human caspase-1, caspase-3, caspase-4, and caspase-8 were obtained from Abcam and MCE (Shanghai, China). Anti-cleaved caspase-1 antibody, anti-GAPDH antibody, and goat anti-Rabbit/anti-mouse lgG/HRP were purchased from CST (USA) and Beyotime […]
as §1, §2, §3, §4
mixture was stirred for 3 h. DCM was removed under vacuum, and the residue was purified by silica gel column chromatography (DCM/MeOH, 180/1) to afford WPy1 as a dark purple solid (21 mg, 6 % yield). HRMS (ESI+): calcd […]
Analysis of probe purity by LC-MSD
Prepare dilute solutions of FPy1, YPy1 and WPy1 using chromatographic-grade acetonitrile and transfer them to sample vials. Begin with an initial mobile phase consisting of 20% acetonitrile (0.05 % formic acid) and 80% H2O (0.05 % formic acid). Over the course of 30 minutes, implement a gradient change to a mobile phase of 90% acetonitrile (0.05 % formic acid) and 10% H2O (0.05 % FA). Under the elution conditions, LC-MSD was performed on the above probe solutions and blank solvent acetonitrile.
Sensitivity of probes for caspase-1
To investigate the sensitivity of the probes for caspase-1, varying concentration of caspase-1 (0, 0.2, 0.4, 0.6, 0.8, 1.0, 1.25, 1.5, 1.75, 2, 2.5, 3 U/mL) were incubated with FPy1 (5 μM), YPy1 (5 μM) and WPy1 (5 μM) respectively in caspase-1 assay buffer (50 mM HEPES, 50 mM NaCl, 0.1 % chaps, 5 % glycerol, 10 mM DTT, 10 mM EDTA) at 37 °C for 2 hours. Fluorescence spectra were recorded using Hitachi F-2700 spectrophotometer with an excitation at 510 nm (Photomultiplier voltage 700 V; Slit widths ex: 10 nm and em =5.0 nm). The fluorescence intensity of FPy1, YPy1 and WPy1 at 585 nm were plotted against the concentration of caspase-1, and a linear regression fitted from the corresponding concentration of caspase-1, and linear regression was applied to determine the slope k. The limit of detection (LoD) was calculated from 3σ/k, in which σ represents the standard deviation of 15 blank measurements.
Various concentrations of FPy1, YPy1 and WPy1 (0.5, 1, 2, 4 μM) in 100 μL enzyme assay buffer (50 mM HEPES, 50 […]

[3] = test system: activated Cas-1 in primary peritoneal macrophages; experiment: High-content screening / fluorescence imaging for caspase-1 modulators in primary peritoneal macrophages; type: cell-based, mouse; settings: MCC950 1 μM with Nig 10 μM simultaneously, after LPS; FPy1 5 μM
From the text: The efficient and rapid discovery of Cas-1 modulators is of significant importance considering the therapeutic potential of Cas-1 in various diseases.[39,40] Therefore, we employed FPy1 to construct a high-content screening system aimed at identifying Cas-1 modulators. The level of activated Cas-1 in cells is influenced by multiple factors. To reduce the impact of factors that affect Cas-1 activation in cells, we utilized the NLRP3 inflammasome-mediated Cas-1 activation model, administering the drug during the second stage where the zymogen was converted into activated Cas-1. MCC950, a selective NLRP3 inflammasome inhibitor that could suppress Cas-1 activation, was selected as the positive drug.[41] […] To validate the efficacy of the Cas-1 modulator screening system (Fig. 6a), we first observed the fluorescence images of PMs stained with FPy1 (5 μM) in the control group, model group, and positive drug group. […] Subsequently, the impact of 25 natural products (10 μM) on activated Cas-1 were studied using high-content analysis (Fig. S20). […] To determine whether deoxyshikonin directly binds to Cas-1 and inhibits its activity, we conducted fluorescence detection following co-incubation of deoxyshikonin, FPy1 and Cas-1. […]
Harvested rat discs were fixed in 4 % buffered paraformaldehyde for 24 hours, decalcified in 10 % ethylenediaminetetraacetic acid (EDTA, Solarbio, E8030) solution for 1 month, embedded in paraffin, and sectioned at a thickness of 5 μm. […] Stained sections were evaluated by three independent raters, blinded to the research protocol, and measurements were averaged for statistical analysis. […]
In vivo fluorescence imaging of intervertebral disc degeneration
Twelve rats were modeled with needle puncture-induced intervertebral disc degeneration at the Co5/6, Co6/7 and Co 7/8 levels. […] In vivo fluorescence images were acquired using an in vivo Imaging System (PerkinElmer). […]
In vivo fluorescence imaging of osteoarthritis […]

–WEHDG– [WPy1, caspase-1-responsive FRET probe with recognition peptide –WEHDG–; RhoB donor, hNR quencher]
fluorescence response to caspase-8 (caspase-8): a certain level of response to caspase-8 | time to maximum fluorescence intensity at 585 nm (reaction time) (caspase-1 [1]): 60 min | maximum fluorescence intensity at 585 nm (caspase-1 [2]; compared with FPy1 and YPy1): significantly lower than that of FPy1 and YPy1 | baseline fluorescence intensity at 585 nm (caspase-1 [2]; compared with other probes): lower baseline fluorescence intensity | linear fitting range of Cas-1 concentration (caspase-1 [2]; fluorescence intensity at 585 nm vs Cas-1 concentration, 37 °C, 2 h): 0–1.25 U mL^−1 | enhancement of fluorescence intensity at 585 nm (caspase-1 [2]; Cas-1 0–3 U/mL, assay buffer 50 mM HEPES, 50 mM NaCl, 0.1% chaps, 5% glycerol, 10 mM DTT, 10 mM EDTA, 37 °C, 2 h, λex 510 nm): about 11.5 fold

CC(C)(O)c1coc(S(=O)(=O)NC(=O)Nc2c3c(cc4c2CCC4)CCC3)c1 [MCC950, reference compound]
fluorescence intensity of FPy1, positive drug group vs model group [3]: significantly lower than in the model group
